Data from US5677309A (priority 1996, dated 1997).
pKi: −log10 of the molar value. Structures can show the parent of a compound that is named as a salt.

Target: GABAa receptor (benzodiazepines (BDZ) receptor)
Assay: GABAa receptor (benzodiazepine receptor) binding assay, 3H-RO15-1788 [3H-Flumazenil] displacement in rat cortical tissue
Settings: 0.5 nM 3H-RO15-1788, 30 min at 4° C., pH 7.4
Compound `O=c1n(-c2ccccc2)nc2n1CNc1ccccc1-2` [Compound 2, 2-phenyl-5,6-dihydro-1,2,4-triazolo[4,3-c]quinazolin-3-one] has a pKi of 7.92.
`O=c1n(-c2ccccn2)nc2n1CNc1ccccc1-2` [Compound 13, 2-(2-Pyridyl)-5,6-dihydro-1,2,4-triazolo[4,3-c]quinazolin-3-one] showed a pKi of 7.20.
Compound `O=c1[nH]c2ccccc2c2nn(-c3ccccc3)c(=S)n12` [Compound 28, 2-phenyl-5,6-dihydro-5-oxo-6[H]-1,2,4-triazolo[4,3-c]quinazolin-3-thione] has a pKi of 8.35.
`O=c1[nH]c2ccccc2c2nn(-c3ccccc3)c(=O)n12` [Compound 1, 2-phenyl-5,6-dihydro-5-oxo-[6H]-1,2,4-triazolo[4,3-c]quinazolin-3-one] gave a pKi of 8.23.
With `O=c1[nH]c2c(c3nn(-c4ccccc4)c(=O)n13)CCCC2` [Compound 30, 2-phenyl-5,6-dihydro-5-oxo-[6H]-7,8,9,10-tetrahydro-1,2,4-triazolo[4,3-c]-quinazolin-3-one] the pKi was 8.35.
For `O=c1[nH]c2ccccc2c2nn(-c3ccccn3)c(=O)n12` [Compound 5, 2-(2-Pyridyl)-5,6-dihydro-5-oxo-[6H]-1,2,4-triazolo[4,3-c]quinazolin-3-one], the pKi was 8.12.
Work on `CN(C)Cc1ccc(-n2nc3n(c2=O)CNc2ccccc2-3)cc1` [Compound 21, 2-[4-(N,N-dimethylaminomethyl)phenyl]-5,6-dihydro-1,2,4-triazolo-[4,3-c]quinazolin-3-one hydrochloride] yielded a pKi of 7.28.
`O=c1n(-c2ccccc2)nc2n1CNC1=C2CCCC1` [Compound 31, 2-phenyl-5,6,7,8,9,10-hexahydro-1,2,4-triazolo[4,3-c]-quinazolin-3-one] showed a pKi of 8.10.
Work on `S=c1n(-c2ccccc2)nc2n1CNc1ccccc1-2` [Compound 29, 2-phenyl-5,6-dihydro-1,2,4-triazolo[4,3-c]quinazolin-3-thione] yielded a pKi of 6.20.

Test system: benzodiazepine receptor
Assay: not given
Settings: Hunkeler et al., 1981; cited from earlier work
In the case of imidazo[1,5-a][1,4]benzodiazepine, the “inhibition of benzodiazepine and beta-carboline binding” value is given as “high affinity competitive inhibitor”.

Test system: benzodiazepine receptor
Assay: not given
Settings: in animals and humans; by itself; cited from earlier work
For imidazo[1,5-a][1,4]benzodiazepine, the intrinsic pharmacological activity is given as “little intrinsic pharmacological activity”.
